Test results reported in the supplement of paper PMC13380429.

Key:
Settings in all cases: 72 h
U2OS [1] = assay: relative viability EC50 (midpoint between 100% and the lowest measured viability); higher = less toxic
Vero E6 [2] = assay: as above
HepG2 [3] = assay: as above
Caco-2 [4] = assay: as above
Calu-3 [5] = assay: as above
U2OS [6] = assay: cell viability relative to DMSO; higher = less toxic
Vero E6 [7] = assay: as above
HepG2 [8] = assay: as above
Caco-2 [9] = assay: as above
Calu-3 [10] = assay: as above
U2OS [11] = assay: drug sensitivity score (DSS) for viability; higher = more toxic; extreme values may be limits of the assay
Vero E6 [12] = assay: as above
HepG2 [13] = assay: as above
Caco-2 [14] = assay: as above
Calu-3 [15] = assay: as above

Row | SMILES | relative viability EC50 (U2OS [1]) [µM] | relative viability EC50 (Vero E6 [2]) [µM] | relative viability EC50 (HepG2 [3]) [µM] | relative viability EC50 (Caco-2 [4]) [µM] | relative viability EC50 (Calu-3 [5]) [µM] | cell viability (U2OS [6]; 1 nM) [%] | cell viability (U2OS [6]; 10 nM) [%] | cell viability (U2OS [6]; 100 nM) [%] | cell viability (U2OS [6]; 1000 nM) [%] | cell viability (U2OS [6]; 10000 nM) [%] | cell viability (Vero E6 [7]; 1 nM) [%] | cell viability (Vero E6 [7]; 10 nM) [%] | cell viability (Vero E6 [7]; 100 nM) [%] | cell viability (Vero E6 [7]; 1000 nM) [%] | cell viability (Vero E6 [7]; 10000 nM) [%] | cell viability (HepG2 [8]; 1 nM) [%] | cell viability (HepG2 [8]; 10 nM) [%] | cell viability (HepG2 [8]; 100 nM) [%] | cell viability (HepG2 [8]; 1000 nM) [%] | cell viability (HepG2 [8]; 10000 nM) [%] | cell viability (Caco-2 [9]; 1 nM) [%] | cell viability (Caco-2 [9]; 10 nM) [%] | cell viability (Caco-2 [9]; 100 nM) [%] | cell viability (Caco-2 [9]; 1000 nM) [%] | cell viability (Caco-2 [9]; 10000 nM) [%] | cell viability (Calu-3 [10]; 1 nM) [%] | cell viability (Calu-3 [10]; 10 nM) [%] | cell viability (Calu-3 [10]; 100 nM) [%] | cell viability (Calu-3 [10]; 1000 nM) [%] | cell viability (Calu-3 [10]; 10000 nM) [%] | drug sensitivity score (U2OS [11]) | drug sensitivity score (Vero E6 [12]) | drug sensitivity score (HepG2 [13]) | drug sensitivity score (Caco-2 [14]) | drug sensitivity score (Calu-3 [15])
1 | O=c1[nH]c2ccccc2c(=O)n1CCCN1CCN(c2ccccc2)CC1 [pelanserin] | > 10 | > 10 | > 10 | > 10 | > 10 | 97 | 104 | 95.6 | 95.2 | 94.8 | 104 | 105 | 102 | 105 | 95.5 | 91.1 | 93 | 95.7 | 107 | 93.6 | 101 | 102 | 94 | 103 | 91.7 | 94.5 | 96.2 | 103 | 102 | 116 | 0 | 0 | 0 | 0 | 0
2 | O=[N+]([O-])c1cccc2cn[nH]c12 [7-nitroindazole] | > 10 | > 10 | > 10 | > 10 | > 10 | 99.7 | 102 | 99.8 | 104 | 97.9 | 103 | 96.5 | 99.6 | 98.7 | 98.7 | 102 | 96.3 | 88.2 | 99.2 | 98.1 | 100 | 94.4 | 97.1 | 106 | 97.8 | 102 | 101 | 99.4 | 97.6 | 93.4 | 0 | 0 | 0 | 0 | 0
3 | N#Cc1cccc(-c2c[nH]c3ncnc(N4CCOCC4)c23)c1 | > 10 | > 10 | > 10 | > 10 | > 10 | 106 | 99.2 | 102 | 98.5 | 105 | 98.1 | 96 | 98.9 | 97.7 | 95.9 | 89.8 | 99.8 | 102 | 105 | 106 | 104 | 98.2 | 105 | 107 | 118 | 99 | 104 | 103 | 99.6 | 115 | 0 | 0 | 0 | 0 | 0
4 | Cc1cc(N2CCOCC2)cc2[nH]c(-c3c(NC[C@@H](O)c4cccc(Cl)c4)cc[nH]c3=O)nc12 | 1.45 | 1.75 | 0.45 | 1.16 | 1.44 | 97.2 | 97.2 | 95.9 | 78 | 22.5 | 89.3 | 101 | 90.6 | 90.2 | 49.9 | 101 | 101 | 80.2 | 58.8 | 31.2 | 102 | 93.9 | 99.4 | 76.8 | 43 | 89.8 | 102 | 96.7 | 81.9 | 38.3 | 7.6 | 4.3 | 10.1 | 6.2 | 6
5 | O=P(O)(O)C(O)(Cn1ccnc1)P(=O)(O)O [zoledronic-acid] | > 10 | > 10 | > 10 | > 10 | > 10 | 96.5 | 96.2 | 100 | 99.3 | 97.2 | 99.7 | 104 | 100 | 98.9 | 99.3 | 101 | 98.7 | 95.2 | 97.7 | 94.1 | 98.2 | 95.1 | 96.8 | 93.2 | 91.6 | 110 | 100 | 91.9 | 93.4 | 97.7 | 0 | 0 | 0 | 0 | 0
6 | OC[C@H]1NCC[C@@H](O)[C@@H]1O [fagomine] | > 10 | > 10 | > 10 | > 10 | > 10 | 97.9 | 100 | 93.8 | 97.1 | 94.8 | 95.6 | 93.5 | 93.1 | 94.5 | 92.7 | 98.9 | 97.4 | 93.3 | 90.2 | 94.6 | 89 | 91.9 | 93.8 | 87.2 | 87.9 | 111 | 103 | 97 | 104 | 99.8 | 0 | 0 | 0 | 0.3 | 0
7 | CC(C)OC(=O)c1cc2c(OC[C@@H](O)CNC(C)(C)C)cccc2[nH]1 | > 10 | > 10 | > 10 | > 10 | > 10 | 96.1 | 99.3 | 96.1 | 98.3 | 91.9 | 101 | 102 | 99.6 | 93.4 | 94.2 | 98.2 | 103 | 102 | 95.7 | 90.4 | 92.3 | 93 | 105 | 89.5 | 103 | 114 | 102 | 91.6 | 108 | 91.3 | 0 | 0 | 0 | 0 | 0
8 | Cc1ccc(S(=O)(=O)NCc2ccccc2)cc1 [BTS] | > 10 | > 10 | > 10 | > 10 | > 10 | 96.7 | 97.4 | 107 | 98 | 102 | 104 | 101 | 91.7 | 95.9 | 93.4 | 102 | 110 | 95.3 | 110 | 107 | 95.1 | 99.3 | 101 | 90 | 99.9 | 98.1 | 100 | 106 | 102 | 112 | 0 | 0 | 0 | 0 | 0
9 | CC(=O)Nc1nnc(S(N)(=O)=O)s1 [acetazolamide] | > 10 | > 10 | > 10 | > 10 | > 10 | 103 | 101 | 95.7 | 104 | 97.2 | 102 | 101 | 97.9 | 89.9 | 99.9 | 105 | 103 | 105 | 105 | 98 | 97.5 | 97.7 | 95.2 | 96.6 | 92.4 | 103 | 104 | 97.5 | 99.2 | 94.3 | 0 | 0 | 0 | 0 | 0
10 | Cc1cc(C(=O)CN2CCCC2)c(C)n1-c1ccc(F)cc1 [IU1] | > 10 | > 10 | > 10 | > 10 | > 10 | 92.3 | 98.8 | 95.5 | 96.2 | 109 | 99.2 | 97.8 | 98.4 | 94.6 | 105 | 95.7 | 100 | 101 | 102 | 103 | 103 | 105 | 101 | 108 | 99.1 | 112 | 99.9 | 102 | 109 | 104 | 0 | 0 | 0 | 0 | 0
11 | COc1ccc2cccc(CCNC(C)=O)c2c1 [agomelatine] | > 10 | > 10 | > 10 | > 10 | > 10 | 105 | 99 | 105 | 98.8 | 99.8 | 98 | 103 | 92.5 | 106 | 96.5 | 97.7 | 104 | 97.8 | 101 | 103 | 102 | 104 | 104 | 96.8 | 98 | 105 | 106 | 103 | 88.4 | 106 | 0 | 0 | 0 | 0 | 0
12 | CC(=O)NCC(=O)N1[C@@H]2CC[C@H]1c1ccc(Nc3ncc(C(F)(F)F)c(NC4CCC4)n3)cc12 | 1.37 | 1.39 | 1.27 | 1.28 | > 10 | 98.6 | 97.4 | 94.4 | 67.3 | 2.9 | 92.6 | 98.6 | 96.6 | 82.1 | 46 | 93.8 | 99.6 | 84.6 | 62.4 | 3.4 | 95.9 | 89.2 | 101 | 79.3 | 40.7 | 101 | 97.7 | 99.4 | 121 | 83 | 9.6 | 5.2 | 9.7 | 6.2 | 0.1
13 | CN(C)CCc1c[nH]c2ccc(Cn3cncn3)cc12 [rizatriptan] | > 10 | > 10 | > 10 | > 10 | > 10 | 99 | 106 | 96.5 | 98.6 | 96.5 | 101 | 94.8 | 98.7 | 99.3 | 98.8 | 99 | 93.5 | 102 | 92.8 | 104 | 91.9 | 102 | 101 | 97.2 | 87.7 | 96.5 | 107 | 99.8 | 97.3 | 99.1 | 0 | 0 | 0 | 0.2 | 0
14 | CNC(=O)ON(C(C)=O)C(=O)NC [caracemide] | > 10 | > 10 | > 10 | > 10 | > 10 | 94.8 | 102 | 99.3 | 103 | 106 | 97.2 | 96.9 | 99.6 | 94.7 | 112 | 107 | 104 | 112 | 93.8 | 108 | 89.6 | 103 | 95.8 | 97.1 | 99.7 | 94 | 102 | 111 | 101 | 98.3 | 0 | 0 | 0 | 0 | 0
15 | CC(C)(C)NCC(O)COc1cccc2[nH]c(C#N)cc12 (stereo not given) [cyanopindolol] | > 10 | > 10 | > 10 | > 10 | > 10 | 100 | 98.8 | 96.7 | 94.7 | 101 | 102 | 103 | 100 | 104 | 97 | 93 | 95.7 | 89.6 | 102 | 95.8 | 103 | 103 | 95.8 | 99.7 | 97.5 | 85.4 | 105 | 100 | 96.8 | 92.8 | 0 | 0 | 0 | 0 | 0
